Experimental data published in patent publication US7544666B2, “NAP derivatives” (Industrial Technology Research Institute, priority 2005, dated 2009).
Where a SMILES comes first, the peptide text is derived from it. Bridges are numbered along the chain shown (N, C = ends).

What was measured:
[1] = test system: Caco-2 cell; experiment: Stability in the Caco-2 cell system; format: in vitro ADME, human; details: 4-hour incubation in Caco-2 Transwell; relative to initial conc. = 100.00 (500 μM)
Description: (§1) The stability of the NAP derivatives prepared by EXAMPLE 1 was measured with the system of human colon cancer cell, Caco-2 cell. Caco-2 cells (1×10^5 cells) were first seeded into a polycarbonate film on the upper layer of a 12-well Transwell and incubated for 18 to 26 days at 37° C. The TEER of the Caco-2 cell monolayer was measured over 350 Ω×cm^2. The stability of the NAP derivatives in the Hanks' balanced salt solutions (HBSS) was measured by the concentration changes of NAP and the NAP derivatives incubated in the HBSS at 37° C. for 4 hours. The stability of the NAP derivatives in the Caco-2 cell system was measured by the procedure described below. NAP and the NAP derivatives in the HBSS were added into the upper layer of the Caco-2 cell-seeded Transwell. After 4-hour incubation, the concentration of NAP and the NAP derivatives in the upper and lower layers was measured and analyzed in comparison with the initial concentration (500 μM) by reverse HPLC at 210 nm.

[2] = test system: Caco-2 cell monolayer; experiment: Permeation to Caco-2 cell monolayer; format: in vitro ADME, human; parameters: unit not given here; details: 4-hour incubation, initial concentration 500 μM in upper layer
Description: The permeation of NAP and the NAP derivatives was examined using the Caco-2 cell system. Caco-2 cells (1×10^5 cells) were seeded into the polycarbonate film on the upper layer of a 12-well Transwell and incubated at 37° C. for 18 to 26 days. The TEER of the Caco cell monolayer was measured over 350 Ω×cm^2. NAP and the NAP derivatives in the HBSS were added into the upper layer of the Caco-2 cell-seeded Transwell. After 4-hour incubation, the concentration of NAP and the NAP derivatives in the upper and lower layers was measured and analyzed in comparison with the initial concentration (500 μM) by reverse phase HPLC at 210 nm.

[3] = Stability in Hanks' balanced salt solution (HBSS); format: physicochemical; details: 37° C., relative to initial conc. in HBSS = 100.00
Description: as §1

| Compound | Conc. after 4-hour in Caco-2 cells [1] | Conc. at the lover layer [2] | Conc. after 4-hour in HBSS [3] |
| --- | --- | --- | --- |
| CCCCCCOC(=O)N[C@@H](CC(N)=O)C(=O)N[C@@H](C)C(=O)N1CCC[C@H]1C(=O)N[C@H](C(=O)N[C@@H](CO)C(=O)N[C@H](C(=O)N1CCC[C@H]1C(=O)N[C@@H](CCC(N)=O)C(N)=O)[C@@H](C)CC)C(C)C [BMEC-NAP0504, nHex-OCO-NAPVSIPQ-NH2] | 82.71 | 0.49 | 100.22 |
| CC[C@H](C)[C@H](NC(=O)[C@H](CO)NC(=O)[C@@H](NC(=O)[C@@H]1CCCN1C(=O)[C@H](C)NC(=O)[C@H](CC(N)=O)NC(=O)c1ccccc1)C(C)C)C(=O)N1CCC[C@H]1C(=O)N[C@@H](CCC(N)=O)C(N)=O [BMEC-NAP0801, Benzoyl-NAPVSIPQ-NH2] | 92.58 | 0.33 | 99.88 |
| CC[C@H](C)[C@H](NC(=O)[C@H](CO)NC(=O)[C@@H](NC(=O)[C@@H]1CCCN1C(=O)[C@H](C)NC(=O)[C@H](CC(N)=O)NC(=O)OCc1ccccc1)C(C)C)C(=O)N1CCC[C@H]1C(=O)N[C@@H](CCC(N)=O)C(=O)O [BMEC-NAP0705, Cbz-NAPVSIPQ-OH] | 72.93 | 0.21 | 100.00 |
| CCCCOC(=O)N[C@@H](CC(N)=O)C(=O)N[C@@H](C)C(=O)N1CCC[C@H]1C(=O)N[C@H](C(=O)N[C@@H](CO)C(=O)N[C@H](C(=O)N1CCC[C@H]1C(=O)N[C@@H](CCC(N)=O)C(N)=O)[C@@H](C)CC)C(C)C [BMEC-NAP0503, nBu-OCO-NAPVSIPQ-NH2] | 85.89 | 0.60 | 99.77 |
| CCCCCCCCCCCCOC(=O)N[C@@H](CC(N)=O)C(=O)N[C@@H](C)C(=O)N1CCC[C@H]1C(=O)N[C@H](C(=O)N[C@@H](CO)C(=O)N[C@H](C(=O)N1CCC[C@H]1C(=O)N[C@@H](CCC(N)=O)C(=O)O)[C@@H](C)CC)C(C)C [BMEC-NAP0406, nDod-OCO-NAPVSIPQ-OH] | 97.75 | – | 130.04 |
| CC[C@H](C)[C@@H]1NC(=O)[C@H](CO)NC(=O)[C@H](C(C)C)NC(=O)[C@@H]2CCCN2C(=O)[C@H](C)NC(=O)[C@H](CC(N)=O)NC(=O)[C@H](CCC(N)=O)NC(=O)[C@@H]2CCCN2C1=O [BMEC-NAP0301, Cyclo-(NAPVSIPQ)] | 94.72 | 0.35 | 100.72 |
| Adipyl-NAPVSIPQ-OH [BMEC-NAP0102] | 60.72 | – | 99.95 |
| CCCCC(=O)N[C@@H](CC(N)=O)C(=O)N[C@@H](C)C(=O)N1CCC[C@H]1C(=O)N[C@H](C(=O)N[C@@H](CO)C(=O)N[C@H](C(=O)N1CCC[C@H]1C(=O)N[C@@H](CCC(N)=O)C(=O)O)[C@@H](C)CC)C(C)C [BMEC-NAP0105, C4H9CO-NAPVSIPQ-OH] | 49.86 | – | 98.36 |
| H-QAPVSVPAQ-OH [BMEC-NAP0607, H-QAPVSVPAQ-OH] | 16.54 | – | 97.33 |
| H-QAPVSIPQ-OH [BMEC-NAP0602, H-QAPVSIPQ-OH] | 21.81 | – | 104.94 |
| H-NAPISIPAN-OH [BMEC-NAP0608, H-NAPISIPAN-OH] | 30.58 | – | 110.89 |
| CC[C@H](C)[C@@H]1NC(=O)[C@H](CO)NC(=O)[C@H](C(C)C)NC(=O)[C@@H]2CCCN2C(=O)[C@H](C)NC(=O)[C@H](CC(N)=O)NC(=O)[C@@H](N)CSSC[C@@H](C(=O)O)NC(=O)[C@H](CCC(N)=O)NC(=O)[C@@H]2CCCN2C1=O [BMEC-NAP0302] (H-CNAPVSIPQC-OH; disulfide 1-10; N-terminus and C-terminus assumed) | 81.33 | 1.28 | – |
| CCCCC(CC)COC(=O)N[C@@H](CC(N)=O)C(=O)N[C@@H](C)C(=O)N1CCC[C@H]1C(=O)N[C@H](C(=O)N[C@@H](CO)C(=O)N[C@H](C(=O)N1CCC[C@H]1C(=O)N[C@@H](CCC(N)=O)C(N)=O)[C@@H](C)CC)C(C)C (stereo partly shown) [BMEC-NAP0502, iOct-OCO-NAPVSIPQ-NH2] | 82.37 | 1.39 | – |
| CC[C@H](C)[C@H](NC(=O)[C@H](CO)NC(=O)[C@@H](NC(=O)[C@@H]1CCCN1C(=O)[C@H](C)NC(=O)[C@H](CC(N)=O)NC(=O)OCC1c2ccccc2-c2ccccc21)C(C)C)C(=O)N1CCC[C@H]1C(=O)N[C@@H](CCC(N)=O)C(N)=O [BMEC-NAP0806, Fmoc-NAPVSIPQ-NH2] | 76.24 | – | 100.00 |
| H-NAPVSVPQ-OH [BMEC-NAP0605, H-NAPVSVPQ-OH] | 27.76 | – | 104.25 |
| CCCCOC(=O)N[C@@H](CC(N)=O)C(=O)N[C@@H](C)C(=O)N1CCC[C@H]1C(=O)N[C@H](C(=O)N[C@@H](CO)C(=O)N[C@H](C(=O)N1CCC[C@H]1C(=O)N[C@@H](CCC(N)=O)C(=O)O)[C@@H](C)CC)C(C)C [BMEC-NAP0403, nBu-OCO-NAPVSIPQ-OH] | 29.05 | – | 98.49 |
| H-NAPISIPQ-OH [BMEC-NAP0604, H-NAPISIPQ-OH] | 23.89 | – | 103.83 |
| CCCCCCCCC(=O)N[C@@H](CC(N)=O)C(=O)N[C@@H](C)C(=O)N1CCC[C@H]1C(=O)N[C@H](C(=O)N[C@@H](CO)C(=O)N[C@H](C(=O)N1CCC[C@H]1C(=O)N[C@@H](CCC(N)=O)C(=O)O)[C@@H](C)CC)C(C)C [BMEC-NAP0107, C8H17CO-NAPVSIPQ-OH] | 24.21 | – | 98.74 |
| H-NAPVSLPQ-OH [BMEC-NAP0606, H-NAPVSLPQ-OH] | 11.54 | – | 99.42 |
| CC[C@H](C)[C@H](NC(=O)[C@H](CO)NC(=O)[C@@H](NC(=O)[C@@H]1CCCN1C(=O)[C@H](C)NC(=O)[C@H](CC(N)=O)NC(=O)c1ccc2c(c1)C(=O)OC21c2ccc(O)cc2Oc2cc(O)ccc21)C(C)C)C(=O)N1CCC[C@H]1C(=O)N[C@@H](CCC(N)=O)C(=O)O [BMEC-NAP9901, 5(6)FAM-NAPVSIPQ-OH] | 81.63 | 0.77 | – |
| H-NAPVSIPAQ-OH [BMEC-NAP0601, H-NAPVSIPAQ-OH] | – | 0.07 | – |
| CC[C@H](C)[C@H](NC(=O)[C@H](CO)NC(=O)[C@@H](NC(=O)[C@@H]1CCCN1C(=O)[C@H](C)NC(=O)[C@H](CC(N)=O)NC(=O)c1ccc(-c2ccccc2)cc1)C(C)C)C(=O)N1CCC[C@H]1C(=O)N[C@@H](CCC(N)=O)C(=O)O [BMEC-NAP0703, 4-Phenylbenzoyl-NAPVSIPQ-OH] | 88.79 | – | 95.73 |
| CCCCC(CC)COC(=O)N[C@@H](CC(N)=O)C(=O)N[C@@H](C)C(=O)N1CCC[C@H]1C(=O)N[C@H](C(=O)N[C@@H](CO)C(=O)N[C@H](C(=O)N1CCC[C@H]1C(=O)N[C@@H](CCC(N)=O)C(=O)O)[C@@H](C)CC)C(C)C (stereo partly shown) [BMEC-NAP0402, iOct-OCO-NAPVSIPQ-OH] | 18.92 | 2.02 | – |
| CCCCCCCCOC(=O)N[C@@H](CC(N)=O)C(=O)N[C@@H](C)C(=O)N1CCC[C@H]1C(=O)N[C@H](C(=O)N[C@@H](CO)C(=O)N[C@H](C(=O)N1CCC[C@H]1C(=O)N[C@@H](CCC(N)=O)C(=O)O)[C@@H](C)CC)C(C)C [BMEC-NAP0405, nOct-OCO-NAPVSIPQ-OH] | 17.11 | – | 99.66 |
| CCCC(=O)N[C@@H](CC(N)=O)C(=O)N[C@@H](C)C(=O)N1CCC[C@H]1C(=O)N[C@H](C(=O)N[C@@H](CO)C(=O)N[C@H](C(=O)N1CCC[C@H]1C(=O)N[C@@H](CCC(N)=O)C(=O)O)[C@@H](C)CC)C(C)C [BMEC-NAP0101, Butyryl-NAPVSIPQ-OH] | 56.02 | – | 97.76 |
| CCCCCCC(=O)N[C@@H](CC(N)=O)C(=O)N[C@@H](C)C(=O)N1CCC[C@H]1C(=O)N[C@H](C(=O)N[C@@H](CO)C(=O)N[C@H](C(=O)N1CCC[C@H]1C(=O)N[C@@H](CCC(N)=O)C(=O)O)[C@@H](C)CC)C(C)C [BMEC-NAP0106, C6H13CO-NAPVSIPQ-OH] | 26.74 | – | 102.05 |
| CC[C@H](C)[C@H](NC(=O)[C@H](COP(=O)(O)O)NC(=O)[C@@H](NC(=O)[C@@H]1CCCN1C(=O)[C@H](C)NC(=O)[C@@H](N)CC(N)=O)C(C)C)C(=O)N1CCC[C@H]1C(=O)N[C@@H](CCC(N)=O)C(=O)O [BMEC-NAP9902, NH2-NAPVS(OPO3H2)IPQ-OH] | 94.19 | – | 98.80 |
